Assay results taken from patent US20100298302A1, “NOVEL PROTEIN KINASE MODULATORS” (priority 2009, published 2010).
Like-named read-outs stand apart in the source and are kept apart here.

Columns and labels:
recombinant PIM-1 = recombinant PIM-1 (Homo sapiens, UniProt P11309); test: PIM-1 kinase assay; assay type: biochemical; settings: for inhibition at 0.5 µM: 500 nM compound, read-out: PIM1: % inh 500 nM
Method: The following procedure was used to assay the PIM-1 kinase activity of compounds of the invention. Other methods for assaying PIM-1 and other PIM kinases, as well as methods to assay for activity against various kinases known in the art.
In a final reaction volume of 50 ul, recombinant PIM-1 (1 ng) was incubated with 12 mM MOPS pH 7.0, 0.4 mM EDTA, glycerol 1%, brij 35 0.002%, 2-mercaptoethanol 0.02%, BSA 0.2 mg/ml, 100 uM KKRNRTLTK, 10 mM MgAcetate, 15 uM ATP, [γ-^33P-ATP] (specific activity approx. 500 cpm/pmol), DMSO 4% and test inhibitor compound at the required concentration. The reaction was initiated by the addition of the Magnesium ATP mixture. After 40 min incubation at 23° C., the reactions were quenched by the addition of 100 ul 0.75% Phosphoric acid, and the labeled peptide collected by filtration through a phosphocellulose filter plate. The plate was washed 4 times with 0.075% phosphoric acid (100 ul per well) and then, after the addition of scintillation fluid (20 ul per well), the counts were measured by a scintillation counter.

MV-4-11 = test: Alamar Blue cell proliferation assay, MV-4-11; assay type: cell-based; settings: Homo sapiens, MV4-11; Table 4
Method: (§1) A representative cell-proliferation assay protocol using Alamar Blue dye (stored at 4° C., use 20 ul per well) is described hereafter.
(§2) a. Split and trypsinize cells.
(§3) b. Count cells using hemocytometer.
(§4) c. Plate 4,000-5,000 cells per well in 100 μl of medium and seed into a 96-well plate according to the following plate layout. Add cell culture medium only to wells B10 to B12. Wells B1 to B9 have cells but no compound added.
(§5) d. Add 100 μl of 2× drug dilution to each well in a concentration shown in the plate layout above. At the same time, add 100 μl of media into the control wells (wells B10 to B12). Total volume is 200 μl/well.
(§6) e. Incubate four (4) days at 37° C., 5% CO2 in a humidified incubator.
(§7) f. Add 20 μl Alamar Blue reagent to each well.
(§8) g. Incubate for four (4) hours at 37° C., 5% CO2 in a humidified incubator.
(§9) h. Record fluorescence at an excitation wavelength of 544 nm and emission wavelength of 590 nm using a microplate reader.
(§10) In the assays, cells are cultured with a test compound for approximately four days, the dye is then added to the cells and fluorescence of […] dye is detected after approximately four hours. Different types of cells can be utilized in the assays (e.g., HCT-116 human colorectal carcinoma cells, PC-3 human prostatic cancer cells, MDA-MB231 human breast cancer cells, K-562 human chronic myelogenous leukemia (CML) cells, MiaPaca human pancreatic carcinoma cells, MV-4 human acute myeloid leukemia cells, and BxPC3 human pancreatic adenocarcinoma cells).

[1] = tested on: K-562 human chronic myelogenous leukemia (CML) cells; test: Alamar Blue cell proliferation assay, K-562; assay type: cell-based; settings: K562, Table 4
Method: as §1, §2, §3, §4, §5, §6, §7, §8, §9, §10

recombinant human CK2 = target: T1, recombinant human CK2 (Homo sapiens, UniProt P68400); test: cell-free CK2 assay; assay type: biochemical
T1 construct: purchased Upstate
Method: Modulatory activity of compounds described herein was assessed in vitro in cell-free CK2 assays by the following method.
Test compounds in aqueous solution were added at a volume of 10 microliters, to a reaction mixture comprising 10 microliters Assay Dilution Buffer (ADB; 20 mM MOPS, pH 7.2, 25 mM beta-glycerolphosphate, 5 mM EGTA, 1 mM sodium orthovanadate and 1 mM dithiothreitol), 10 microliters of substrate peptide (RRRDDDSDDD, dissolved in ADB at a concentration of 1 mM), 10 microliters of recombinant human CK2 (25 ng dissolved in ADB; Upstate). Reactions were initiated by the addition of 10 microliters of ATP Solution (90% 75 mM MgCl2, 75 micromolar ATP dissolved in ADB; 10% [γ-^33P]ATP (stock 1 mCi/100 μl; 3000 Ci/mmol (Perkin Elmer) and maintained for 10 minutes at 30 degrees C. The reactions were quenched with 100 microliters of 0.75% phosphoric acid, then transferred to and filtered through a phosphocellulose filter plate (Millipore). After washing each well 5 times with 0.75% phosphoric acid, the plate was dried under vacuum for 5 min and, following the addition of 15 ul of scintilation fluid to each well, the residual radioactivity was measured using a Wallac luminescence counter.

recombinant human PIM2 = recombinant human PIM2 (Homo sapiens, UniProt Q9P1W9); test: PIM-2 kinase assay; assay type: biochemical
Method: Test compounds dissolved and diluted in DMSO (2 μl) were added to a reaction mixture comprising 10 μl of 5× Reaction Buffer (40 mM MOPS pH 7.0, 5 mM EDTA), 10 μl of recombinant human PIM2 solution (4 ng PIM-2 dissolved in dilution buffer (20 mM MOPS pH 7.0; EDTA 1 mM; 5% Glycerol; 0.01% Brij 35; […]; […] 2-mercaptoethanol; 1 mg/ml BSA)) and 8 ul of water. Reactions were initiated by the addition of 10 ul of ATP Solution ([…] (15 mM MgCl2; 75 uM ATP) 1% ([γ-33P]ATP: Stock 1 mCi/100 μl; 3000 Ci/mmol (Perkin Elmer)) and 10 ul of substrate peptide solution (RSRSSYPAGT, dissolved in water at a concentration of 1 mM), Reactions were maintained for 10 min at 30° C. The reactions were quenched with 100 ul of 0.75% Phosphoric acid, then transferred to and filtered through a Phosphocellulose filter plate (Millipore, MSPH-N6B-50). After washing each well 4 times with 0.75% Phosphoric acid, scintillation fluid (20 uL) was added to each well and the residual radioactivity was measured using a Wallac luminescence counter.

[2] = 15 μM ATP, read-out: PIM1: IC50 (15 μM ATP)

T1 sequence (P68400 whole entry): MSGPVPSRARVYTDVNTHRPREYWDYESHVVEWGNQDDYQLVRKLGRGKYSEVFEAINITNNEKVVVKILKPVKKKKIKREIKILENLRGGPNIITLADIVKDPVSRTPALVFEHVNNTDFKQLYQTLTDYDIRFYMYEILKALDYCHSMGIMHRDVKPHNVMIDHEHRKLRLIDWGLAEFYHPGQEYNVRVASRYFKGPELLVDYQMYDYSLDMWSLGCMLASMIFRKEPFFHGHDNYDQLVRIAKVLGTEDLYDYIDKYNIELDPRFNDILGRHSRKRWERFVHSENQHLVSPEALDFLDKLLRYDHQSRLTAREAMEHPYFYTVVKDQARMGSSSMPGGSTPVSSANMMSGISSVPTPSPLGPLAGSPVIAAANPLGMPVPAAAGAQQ
T1 sequence (P67870 whole entry partner): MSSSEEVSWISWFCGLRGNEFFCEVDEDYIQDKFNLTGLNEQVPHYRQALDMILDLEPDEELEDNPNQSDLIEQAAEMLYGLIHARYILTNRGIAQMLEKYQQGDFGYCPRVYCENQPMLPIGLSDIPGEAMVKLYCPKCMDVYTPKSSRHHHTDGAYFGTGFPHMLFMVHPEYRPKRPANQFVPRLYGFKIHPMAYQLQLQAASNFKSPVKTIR
Sequence of recombinant PIM-1 (P11309 whole entry): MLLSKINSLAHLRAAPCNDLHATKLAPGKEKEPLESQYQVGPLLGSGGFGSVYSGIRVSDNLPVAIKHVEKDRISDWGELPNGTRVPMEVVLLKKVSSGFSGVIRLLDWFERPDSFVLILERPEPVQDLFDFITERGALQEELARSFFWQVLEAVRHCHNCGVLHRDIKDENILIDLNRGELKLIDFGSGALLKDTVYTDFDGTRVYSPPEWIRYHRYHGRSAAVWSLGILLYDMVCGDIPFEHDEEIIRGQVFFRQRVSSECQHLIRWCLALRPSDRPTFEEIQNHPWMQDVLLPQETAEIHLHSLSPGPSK
Sequence of recombinant human PIM2 (Q9P1W9 whole entry): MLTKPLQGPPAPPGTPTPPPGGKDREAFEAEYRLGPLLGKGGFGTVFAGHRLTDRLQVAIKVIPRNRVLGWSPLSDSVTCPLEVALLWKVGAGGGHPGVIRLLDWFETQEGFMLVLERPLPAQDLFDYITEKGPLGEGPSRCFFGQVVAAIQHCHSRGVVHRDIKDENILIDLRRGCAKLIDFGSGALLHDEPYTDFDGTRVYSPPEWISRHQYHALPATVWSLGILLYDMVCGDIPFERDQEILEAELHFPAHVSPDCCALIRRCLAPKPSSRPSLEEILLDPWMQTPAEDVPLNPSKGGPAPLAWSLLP

CCN1CCCC1CNc1nc2cc(-c3nnn[nH]3)ccc2n2cccc12 (centres unmarked)
inhibition at 0.5 µM (recombinant PIM-1): 81.5% | IC50 (recombinant PIM-1; [2]): 97 nM | IC50 (MV-4-11): > 10000 nM | IC50 [1]: > 10000 nM

N#Cc1ccc2c(c1)nc(Cl)c1cccn12
inhibition at 0.5 µM (recombinant PIM-1): -35.4%

CCOC(=O)c1cccc2c1nc(N(C(=O)OC(C)(C)C)c1ccccc1F)c1cccn12
IC50 (recombinant PIM-1; Table 5, read-out: PIM1 IC50): > 2500 nM | IC50 (recombinant human CK2): > 5000 nM | IC50 (recombinant human PIM2): > 2500 nM

OCc1cccc2c1nc(Nc1ccccc1F)c1cccn12
IC50 (recombinant PIM-1; Table 5, read-out: PIM1 IC50): > 2500 nM | IC50 (recombinant human CK2): > 5000 nM | IC50 (recombinant human PIM2): < 5000 nM

O=C(O)c1ccc2c(c1)[nH]c(=O)c1cccn12
inhibition at 0.5 µM (recombinant PIM-1): 25.6%

Fc1ccc(Nc2nc3cc(-c4nnn[nH]4)ccc3n3cccc23)cc1
inhibition at 0.5 µM (recombinant PIM-1): 73.2% | IC50 (recombinant PIM-1; [2]): 365 nM | IC50 (MV-4-11): > 10000 nM | IC50 [1]: > 10000 nM

c1cc(-c2nnc[nH]2)c2nc(NC3CC3)c3cccn3c2c1
IC50 (recombinant PIM-1; Table 5, read-out: PIM1 IC50): < 100 nM | IC50 (recombinant human CK2): < 1000 nM | IC50 (recombinant human PIM2): < 1000 nM

CN(C)CCNc1nc2c(-c3nnc[nH]3)cccc2n2cccc12
IC50 (recombinant PIM-1; Table 5, read-out: PIM1 IC50): > 2500 nM | IC50 (recombinant human CK2): > 5000 nM | IC50 (recombinant human PIM2): > 2500 nM

CC(=O)N1CCN(C(=O)c2ccc3c(c2)[nH]c(=O)c2cccn23)CC1
inhibition at 0.5 µM (recombinant PIM-1): -8.35%

O=C(c1ccc2c(c1)[nH]c(=O)c1cccn12)N1CCNCC1
inhibition at 0.5 µM (recombinant PIM-1): -11.8%

CCOC(=O)c1ccc2c(c1)[nH]c(=O)c1cccn12
inhibition at 0.5 µM (recombinant PIM-1): 14%

O=C(O)c1ccc2c(c1)nc(NCCN1CCCC1)c1cccn12
inhibition at 0.5 µM (recombinant PIM-1): 72.5% | IC50 (recombinant PIM-1; [2]): 504 nM | IC50 (MV-4-11): > 10000 nM | IC50 [1]: > 10000 nM

O=C(O)c1ccc2c(c1)nc(NCCN1CCCCC1)c1cccn12
inhibition at 0.5 µM (recombinant PIM-1): 98.8% | IC50 (recombinant PIM-1; [2]): 372 nM | IC50 (MV-4-11): > 10000 nM | IC50 [1]: > 10000 nM

O=C(c1ccc2c(c1)[nH]c(=O)c1cccn12)N1CCCNCC1
inhibition at 0.5 µM (recombinant PIM-1): -0.195%

O=C(O)c1cccc2c1nc(Nc1ccccc1F)c1cncn12
IC50 (recombinant human CK2): < 1000 nM | IC50 (recombinant human PIM2): > 2500 nM

CN1CCN(C(=O)c2ccc3c(c2)[nH]c(=O)c2cccn23)CC1
inhibition at 0.5 µM (recombinant PIM-1): -31.9%

COc1cccc(Nc2nc3cc(-c4nnn[nH]4)ccc3n3cccc23)c1
inhibition at 0.5 µM (recombinant PIM-1): 15%

CC(C)(C)OC(=O)N1CCCN(C(=O)c2ccc3c(c2)[nH]c(=O)c2cccn23)CC1
inhibition at 0.5 µM (recombinant PIM-1): -46.9%

O=C(O)c1ccc2c(c1)nc(NCCN1CCOCC1)c1cccn12
inhibition at 0.5 µM (recombinant PIM-1): 18.9%

CCN1CCCC1CNc1nc2cc(C(=O)O)ccc2n2cccc12 (centres unmarked)
inhibition at 0.5 µM (recombinant PIM-1): 89.7% | IC50 (recombinant PIM-1; [2]): 200 nM | IC50 (MV-4-11): > 10000 nM | IC50 [1]: > 10000 nM

O=c1[nH]c2cc(-c3nnn[nH]3)ccc2n2cccc12
inhibition at 0.5 µM (recombinant PIM-1): 41.8%

COc1ccc(Nc2nc3cc(-c4nnn[nH]4)ccc3n3cccc23)cc1Cl
inhibition at 0.5 µM (recombinant PIM-1): 19.4%

COc1ccc(OC)c(Nc2nc3cc(-c4nnn[nH]4)ccc3n3cccc23)c1
inhibition at 0.5 µM (recombinant PIM-1): 10.9%

N#Cc1ccc2c(c1)nc(NCc1ccccc1)c1cccn12
inhibition at 0.5 µM (recombinant PIM-1): -35%

CN(C)CCNc1nc2cc(-c3nnn[nH]3)ccc2n2cccc12
inhibition at 0.5 µM (recombinant PIM-1): 63.5% | IC50 (recombinant PIM-1; [2]): 486 nM | IC50 (MV-4-11): > 10000 nM | IC50 [1]: > 10000 nM

O=C(O)c1ccc2c(c1)nc(NCCO)c1cccn12
inhibition at 0.5 µM (recombinant PIM-1): 35%

c1ccc(CNc2nc3cc(-c4nnn[nH]4)ccc3n3cccc23)cc1
inhibition at 0.5 µM (recombinant PIM-1): 14.4%

CN(C)CCNC(=O)c1ccc2c(c1)[nH]c(=O)c1cccn12
inhibition at 0.5 µM (recombinant PIM-1): -13.9%

CN(C)CCNc1nc2cc(C(=O)O)ccc2n2cccc12
inhibition at 0.5 µM (recombinant PIM-1): 76.5% | IC50 (recombinant PIM-1; [2]): 173 nM | IC50 (MV-4-11): 688 nM | IC50 [1]: > 10000 nM

CC(C)(C)OC(=O)N1CCN(C(=O)c2ccc3c(c2)[nH]c(=O)c2cccn23)CC1
inhibition at 0.5 µM (recombinant PIM-1): -27.1%

c1ccc(Nc2nc3cc(-c4nnc[nH]4)ccc3n3cccc23)cc1
inhibition at 0.5 µM (recombinant PIM-1): -24.5%

c1ccc(Nc2nc3cc(-c4nnn[nH]4)ccc3n3cccc23)cc1
inhibition at 0.5 µM (recombinant PIM-1): 75.9% | IC50 (recombinant PIM-1; [2]): 164 nM | IC50 (MV-4-11): > 10000 nM | IC50 [1]: > 10000 nM

O=C(O)c1ccc2c(c1)nc(NCCC(F)(F)F)c1cccn12
inhibition at 0.5 µM (recombinant PIM-1): 46%

O=C(O)c1ccc2c(c1)nc(Nc1ccccc1)c1cccn12
inhibition at 0.5 µM (recombinant PIM-1): 73.1% | IC50 (recombinant PIM-1; [2]): 130 nM | IC50 (MV-4-11): 483 nM | IC50 [1]: > 10000 nM

CCOC(=O)c1cccc2c1nc(Nc1ccccc1F)c1cncn12
IC50 (recombinant human CK2): < 5000 nM | IC50 (recombinant human PIM2): > 2500 nM

NC(=O)c1ccc2c(c1)[nH]c(=O)c1cccn12
inhibition at 0.5 µM (recombinant PIM-1): -22.5%

N#Cc1ccc2c(c1)[nH]c(=O)c1cccn12
inhibition at 0.5 µM (recombinant PIM-1): -28.6%

CCOC(=O)c1cccc2c1[nH]c(=O)c1cncn12
IC50 (recombinant human CK2): < 5000 nM | IC50 (recombinant human PIM2): > 2500 nM

CCOC(=O)c1cccc2c1[nH]c(=O)c1nccn12
IC50 (recombinant human CK2): > 5000 nM | IC50 (recombinant human PIM2): > 2500 nM

OCCNc1nc2cc(-c3nnn[nH]3)ccc2n2cccc12
inhibition at 0.5 µM (recombinant PIM-1): 67.9% | IC50 (recombinant PIM-1; [2]): 273 nM | IC50 (MV-4-11): > 10000 nM | IC50 [1]: > 10000 nM

CN1CCCC(Nc2nc3cc(C(=O)O)ccc3n3cccc23)C1 (centres unmarked)
inhibition at 0.5 µM (recombinant PIM-1): 69.5% | IC50 (recombinant PIM-1; [2]): 330 nM | IC50 (MV-4-11): > 10000 nM | IC50 [1]: > 10000 nM

NC(=O)c1cccc2c1nc(Nc1ccccc1F)c1cncn12
IC50 (recombinant human CK2): < 100 nM | IC50 (recombinant human PIM2): < 100 nM

CCOC(=O)c1ccc2c(c1)nc(Nc1ccc(F)c(Cl)c1)c1cccn12
inhibition at 0.5 µM (recombinant PIM-1): -76.2%
